This is an account of results in PubChem BioAssay (NCI).

Some test systems named below: CCRF-CEM leukemia; U251 CNS; OVCAR-8 ovarian; NCI-H23 lung; A498 renal; HCT-15 colon; UACC-62 melanoma; MOLT-4 leukemia; SK-MEL-5 melanoma; CAKI-1 renal.
Common to all, as to experiment: growth of human tumour cells (NCI), 48 h

SMILES strings stand for the structures.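 Growth conditions: 96-well plates. Treatment: test compound, 48 hours, 5 concentrations. Analysis: linear interpolation between bracketing concentrations; unreached endpoints set to highest concentration. Abbreviation: GI50, concentration required for 50% inhibition of growth. TGI is the concentration that stops growth completely.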

As for `C=C(C)[C@@H]1CC[C@]2(C)CC[C@]3(C)[C@H](CC[C@@H]4[C@@]5(C)CC[C@H](OC(=O)c6ccccc6)C(C)(C)[C@@H]5CC[C@]43C)[C@@H]12`, the TGI with CCRF-CEM leukemia, with U251 CNS, in the experiment with OVCAR-8 ovarian, with NCI-H23 lung, in the experiment with A498 renal and in the experiment with HCT-15 colon was more than 100 µM throughout. The TGI in the experiment on UACC-62 melanoma, in the experiment with MOLT-4 leukemia, with SK-MEL-5 melanoma and with CAKI-1 renal was more than 100 µM each time.

As to `O=C(N/C(=C\c1ccccc1[N+](=O)[O-])c1nc2ccccc2[nH]1)c1ccccc1`, the TGI with CCRF-CEM leukemia, in the experiment with U251 CNS, in the experiment on OVCAR-8 ovarian, in the experiment with NCI-H23 lung, in the experiment on HCT-15 colon and with UACC-62 melanoma was more than 100 µM in each case. Further, the TGI with MOLT-4 leukemia, in the experiment with SK-MEL-5 melanoma and in the experiment with CAKI-1 renal was more than 100 µM in each case.

For `CN(C)CCNc1ccc2ncnc3c2c1C(=O)c1ccccc1-3`, the TGI in the experiment with CCRF-CEM leukemia is 2.89 µM; in the experiment with U251 CNS it was 17.9 µM; in the experiment on OVCAR-8 ovarian, 10.5 µM; with NCI-H23 lung, 3.4 µM; in the experiment on A498 renal, 9.25 µM; in the experiment on HCT-15 colon, 13.5 µM. Also, the TGI came out at 4.92 µM with UACC-62 melanoma, 2.31 µM in the experiment on MOLT-4 leukemia, 4.99 µM with SK-MEL-5 melanoma and 2.01 µM in the experiment on CAKI-1 renal.

With `COc1ccc(-c2cc(-c3ccccc3)n(C3OCC(OC(C)=O)C(OC(C)=O)C3OC(C)=O)c(=S)c2C#N)cc1` (stereo not drawn), the TGI in the experiment with CCRF-CEM leukemia, with U251 CNS, in the experiment on OVCAR-8 ovarian, with NCI-H23 lung, in the experiment on A498 renal and in the experiment on HCT-15 colon was more than 100 µM in each case. Moreover, the TGI in the experiment on UACC-62 melanoma, in the experiment on MOLT-4 leukemia, with SK-MEL-5 melanoma and with CAKI-1 renal was more than 100 µM each time.

As to `CC(C)(N)CO[C@H]1C[C@H]2CC[C@@]1(C)C2(C)C`, the TGI in the experiment with CCRF-CEM leukemia stood at 83.6 µM; with U251 CNS, 36.4 µM; in the experiment on OVCAR-8 ovarian, 53.1 µM; in the experiment with NCI-H23 lung, 66 µM; in the experiment with A498 renal it was 82.1 µM; in the experiment with HCT-15 colon, 47 µM. Moreover, the TGI in the experiment on UACC-62 melanoma stood at 34.3 µM; with MOLT-4 leukemia, 80.9 µM; in the experiment with SK-MEL-5 melanoma, 32.8 µM; in the experiment on CAKI-1 renal it was 70.6 µM.

Take `O=C(CCCn1c(=O)c2sc3ccccc3c2n2nnc(-c3ccccc3)c12)NCCc1cnc[nH]1`: the GI50 was 1.06 µM with U251 CNS; 0.32 µM in the experiment on OVCAR-8 ovarian; 2.92 µM in the experiment on NCI-H23 lung; 1.55 µM in the experiment on A498 renal; 1.26 µM in the experiment with HCT-15 colon; 1.91 µM in the experiment on UACC-62 melanoma. Further, the GI50 in the experiment with SK-MEL-5 melanoma is 1.91 µM; with CAKI-1 renal it was 0.181 µM. Besides, the TGI in the experiment on U251 CNS amounted to 2.24 µM; with OVCAR-8 ovarian, 2.79 µM; with NCI-H23 lung it was 11.6 µM; with A498 renal it was 3 µM; in the experiment on HCT-15 colon, 2.51 µM; in the experiment with UACC-62 melanoma, 3.56 µM. In addition, the TGI in the experiment with SK-MEL-5 melanoma came to 4.11 µM; in the experiment with CAKI-1 renal, 1.71 µM.

`Cc1nc2ccccc2c(=O)n1-c1n[nH]c2ccccc12`: the TGI with CCRF-CEM leukemia, with U251 CNS, in the experiment with OVCAR-8 ovarian, in the experiment with NCI-H23 lung, with A498 renal and in the experiment on HCT-15 colon was more than 100 µM in each case. Further, the TGI in the experiment with UACC-62 melanoma, with MOLT-4 leukemia, with SK-MEL-5 melanoma and with CAKI-1 renal was more than 100 µM throughout.

Take `Cc1nc(Cl)c(Cl)c(Cl)n1`: the TGI was determined as 0.0333 µM in the experiment with CCRF-CEM leukemia; 4.07 µM in the experiment on U251 CNS; 2 µM in the experiment on OVCAR-8 ovarian; 2.1 µM with NCI-H23 lung; 4.81 µM with A498 renal; 1.96 µM in the experiment with HCT-15 colon. The TGI in the experiment with UACC-62 melanoma was 1.46 µM; with MOLT-4 leukemia, less than 0.025 µM; with SK-MEL-5 melanoma it was 1.97 µM.

For `CN1CCN(c2ccc(-c3ccc4ncc(C#N)c(Nc5ccc(F)c(Cl)c5)c4c3)cc2)CC1`, the GI50 in the experiment with CCRF-CEM leukemia was 2.2 µM; in the experiment on U251 CNS, 2.3 µM; in the experiment with OVCAR-8 ovarian it was 2.74 µM; with NCI-H23 lung, 10.1 µM; in the experiment with A498 renal, 2.43 µM; in the experiment on HCT-15 colon, 1.05 µM. Besides, the GI50 in the experiment with UACC-62 melanoma was 1.87 µM; with MOLT-4 leukemia, 1.97 µM; in the experiment with SK-MEL-5 melanoma, 2.19 µM; with CAKI-1 renal it was 1.01 µM. Besides, the TGI with CCRF-CEM leukemia was 6.52 µM; with U251 CNS, 7.47 µM; in the experiment on OVCAR-8 ovarian it was 14.5 µM; with NCI-H23 lung, 41.5 µM; in the experiment with A498 renal, 12.4 µM; in the experiment on HCT-15 colon it was 3.62 µM. The TGI in the experiment on UACC-62 melanoma amounted to 3.75 µM; with MOLT-4 leukemia, 5.53 µM; with SK-MEL-5 melanoma, 5.43 µM; in the experiment on CAKI-1 renal, 3.01 µM.

For `CCn1nc(C)c2c1C(=O)NC(C)C(=O)N2` (stereo not drawn), the TGI in the experiment with U251 CNS is more than 100 µM; with OVCAR-8 ovarian, more than 100 µM; in the experiment on NCI-H23 lung it was more than 100 µM; in the experiment on A498 renal, more than 100 µM; with HCT-15 colon it was 28.3 µM; in the experiment on UACC-62 melanoma, more than 100 µM. Moreover, the TGI in the experiment with SK-MEL-5 melanoma and in the experiment with CAKI-1 renal was more than 100 µM in each case.

As to `COc1cc(-c2n/c(=C\c3c(O)[nH]c4ccc(Cl)cc34)cc3c2=Nc2ccccc2-3)cc(OC)c1OC`, the GI50 was 0.849 µM in the experiment with CCRF-CEM leukemia; 1.05 µM in the experiment on NCI-H23 lung; 1.76 µM in the experiment with A498 renal; 1.56 µM in the experiment on HCT-15 colon; 1.8 µM in the experiment on UACC-62 melanoma; 0.679 µM in the experiment on MOLT-4 leukemia. In addition, the GI50 with SK-MEL-5 melanoma is 1.83 µM; with CAKI-1 renal it was 1.97 µM. In addition, the TGI in the experiment with CCRF-CEM leukemia stood at 37.3 µM; in the experiment on NCI-H23 lung, 3.85 µM; in the experiment with A498 renal, 4.71 µM; with HCT-15 colon it was 8.44 µM; in the experiment on UACC-62 melanoma, 3.42 µM; in the experiment with MOLT-4 leukemia it was 3.64 µM. Besides, the TGI in the experiment with SK-MEL-5 melanoma stood at 5.63 µM; in the experiment on CAKI-1 renal, 6.72 µM.

`Nc1ccc2c(c1)C1=NNC(=O)CC1C2` (stereo not drawn): the TGI in the experiment on CCRF-CEM leukemia, in the experiment with U251 CNS, with OVCAR-8 ovarian, in the experiment with NCI-H23 lung, with A498 renal and with HCT-15 colon was more than 100 µM throughout. In addition, the TGI with UACC-62 melanoma, in the experiment on MOLT-4 leukemia, in the experiment with SK-MEL-5 melanoma and in the experiment with CAKI-1 renal was more than 100 µM in each case.

With `CO[C@H]1[C@@H](O)[C@@H](C)O[C@@H](O[C@H]2CC[C@@]3(C)[C@H](CC[C@@H]4[C@@H]3CC[C@]3(C)[C@@H](C5=CC(=O)OC5)CC[C@]43O)C2)[C@@H]1O`, the TGI is 0.37 µM in the experiment on CCRF-CEM leukemia; 0.0415 µM in the experiment on U251 CNS; 0.0444 µM in the experiment on OVCAR-8 ovarian; 0.00675 µM in the experiment with NCI-H23 lung; 0.813 µM with A498 renal; 0.0419 µM in the experiment with HCT-15 colon. Moreover, the TGI in the experiment on UACC-62 melanoma amounted to 0.0228 µM; in the experiment on MOLT-4 leukemia it was 0.436 µM; in the experiment with SK-MEL-5 melanoma, 0.0342 µM; in the experiment on CAKI-1 renal it was 0.0128 µM. The GI50 with NCI-H23 lung is less than 0.0025 µM.

For `CC1SC(c2ccccc2)N(Nc2c3ccccc3nc3ccccc23)C1=O` (stereo not drawn), the TGI with CCRF-CEM leukemia, with U251 CNS, with OVCAR-8 ovarian, with NCI-H23 lung, in the experiment with HCT-15 colon and with UACC-62 melanoma was more than 100 µM in each case. In addition, the TGI in the experiment with MOLT-4 leukemia, in the experiment with SK-MEL-5 melanoma and in the experiment with CAKI-1 renal was more than 100 µM each time.
